Experimental data taken from patent US20230303495A9, “PYRIDINE OXYNITRIDE, PREPARATION METHOD THEREFOR AND USE THEREOF” (Orion Corporation, priority 2019, published 2023).

What was measured:
[1] = In vivo pharmacokinetics of rat, single intravenous injection or oral administration by gavage; set-up: species or system Male Sprague Dawley rats; conditions: male, Sprague-Dawley, plasma; for Vd: read-out: VZ; for bioavailability: intragastric (gavage) 10 mg/kg vs intravenous 1 mg/kg
Protocol: In this experimental embodiment, the in vivo pharmacokinetics of rat was evaluated by a single intravenous injection or oral administration by gavage.
Experimental methods and conditions: Male Sprague Dawley rats, all animals were fasted overnight, and the test compound was given 1 mg/Kg (intravenous injection, solvent […]) and 10 mg/Kg (administrated by gavage) respectively, 5, 15, 30 min, 1, 2, 4, 6, 8 and 24 hr after administration, blood was collected through the submandibular vein, about 0.20 mL of each sample was collected, heparin sodium was used for anticoagulation, the samples were placed on ice after the collection, then centrifuged within 1 hour to separate the plasma for testing. The blood drug concentration in plasma was detected by liquid-phase tandem mass spectrometry (LC/MS/MS), and the pharmacokinetic parameters were calculated by the measured concentration.

NaV1.8 = molecular target: T1, NaV1.8 (Homo sapiens, UniProt Q9Y5Y9); experiment: Whole-cell patch clamp blocking activity against NaV1.8 channel current; format: cell-based; conditions: for IC50: CHO cell line stably expressing Nav1.8 (SCN10A: NM_006514), patch clamp; for Blocking rate (%) @100 nM: against NaV1.8 at 100 nM, CHO cell line stably expressing Nav1.8, patch clamp
T1 construct: expressed in transfected cells
T1 sequence (Q9Y5Y9 whole entry): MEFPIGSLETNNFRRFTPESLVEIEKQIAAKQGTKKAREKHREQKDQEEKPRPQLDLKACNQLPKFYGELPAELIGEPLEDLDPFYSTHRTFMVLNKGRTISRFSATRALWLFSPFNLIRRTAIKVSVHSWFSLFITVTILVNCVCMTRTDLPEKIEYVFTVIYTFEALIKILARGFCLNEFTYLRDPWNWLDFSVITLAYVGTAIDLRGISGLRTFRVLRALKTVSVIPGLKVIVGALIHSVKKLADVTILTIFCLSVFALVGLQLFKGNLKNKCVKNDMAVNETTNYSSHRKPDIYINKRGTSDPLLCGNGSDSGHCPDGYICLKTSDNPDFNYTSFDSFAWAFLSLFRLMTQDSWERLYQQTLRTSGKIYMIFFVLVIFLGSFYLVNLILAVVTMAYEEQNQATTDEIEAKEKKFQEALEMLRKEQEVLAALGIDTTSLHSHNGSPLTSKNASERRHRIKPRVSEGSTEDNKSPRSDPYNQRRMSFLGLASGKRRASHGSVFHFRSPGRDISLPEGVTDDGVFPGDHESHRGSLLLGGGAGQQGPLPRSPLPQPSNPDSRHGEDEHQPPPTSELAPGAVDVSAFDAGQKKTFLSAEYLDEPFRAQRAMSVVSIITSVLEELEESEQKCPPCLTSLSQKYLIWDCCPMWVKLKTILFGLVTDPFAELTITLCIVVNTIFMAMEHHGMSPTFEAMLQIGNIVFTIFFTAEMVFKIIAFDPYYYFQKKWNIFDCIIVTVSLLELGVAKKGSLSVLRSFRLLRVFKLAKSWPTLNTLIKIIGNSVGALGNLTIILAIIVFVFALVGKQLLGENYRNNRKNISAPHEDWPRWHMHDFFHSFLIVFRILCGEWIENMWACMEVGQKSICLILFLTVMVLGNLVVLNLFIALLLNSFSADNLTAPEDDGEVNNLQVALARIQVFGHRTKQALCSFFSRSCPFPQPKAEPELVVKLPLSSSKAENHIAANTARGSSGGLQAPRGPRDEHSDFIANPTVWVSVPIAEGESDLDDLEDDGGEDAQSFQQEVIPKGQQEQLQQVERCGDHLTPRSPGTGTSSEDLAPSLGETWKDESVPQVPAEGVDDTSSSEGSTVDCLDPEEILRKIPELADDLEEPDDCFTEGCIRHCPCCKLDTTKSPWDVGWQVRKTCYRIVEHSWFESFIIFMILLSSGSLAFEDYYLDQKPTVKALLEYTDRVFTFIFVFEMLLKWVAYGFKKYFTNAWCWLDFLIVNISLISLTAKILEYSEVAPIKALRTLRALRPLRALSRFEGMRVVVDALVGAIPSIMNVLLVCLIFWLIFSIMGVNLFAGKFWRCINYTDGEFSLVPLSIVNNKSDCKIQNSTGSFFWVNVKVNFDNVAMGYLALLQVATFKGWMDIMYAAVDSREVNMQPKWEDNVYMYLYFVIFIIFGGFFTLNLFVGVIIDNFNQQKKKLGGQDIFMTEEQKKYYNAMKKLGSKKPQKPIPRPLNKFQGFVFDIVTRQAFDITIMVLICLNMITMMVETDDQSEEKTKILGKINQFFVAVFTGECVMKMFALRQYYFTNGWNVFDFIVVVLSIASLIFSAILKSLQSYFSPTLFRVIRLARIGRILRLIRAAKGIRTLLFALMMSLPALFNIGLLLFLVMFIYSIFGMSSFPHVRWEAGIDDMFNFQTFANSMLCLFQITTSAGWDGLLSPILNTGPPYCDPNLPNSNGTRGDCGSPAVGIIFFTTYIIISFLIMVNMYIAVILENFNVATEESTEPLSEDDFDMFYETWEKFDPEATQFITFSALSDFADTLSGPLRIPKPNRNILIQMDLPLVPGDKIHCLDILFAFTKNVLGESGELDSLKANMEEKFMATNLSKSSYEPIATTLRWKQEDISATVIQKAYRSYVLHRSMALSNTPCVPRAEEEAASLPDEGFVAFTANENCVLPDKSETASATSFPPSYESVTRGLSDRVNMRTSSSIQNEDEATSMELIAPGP
Protocol: 1. Test method: patch clamp technique was used to detect the influence of compounds on voltage-gated sodium channel (NaV) 1.1-1.8 subtype current
1) The specific information of the CHO cell line stably expressing the Nav1.8 channel was as follows: SCN10A: NM_006514
2) Cells were cultured in HAM'S/F-12 medium containing 10% fetal bovine serum and 10 μg/mL Blasticidin, 200 μg/mL Hygromycin B and 100 μg/mL Zeocin, culture temperature was 37° C. and the concentration of CO2 was 5%.
5) Patch clamp detection, before the experiment, the cells were separated with 0.25%—trypsin EDTA, inoculated into a 24 well plate with a density of 8*10^3 cells per well (final volume: 500 μL), tetracycline was added thereto, and experimental test was performed on the next day.
1) Extracellular fluid: 140 mM NaCl, 3.5 mM KCl, 2 mM CaCl2, 10 mM HEPES, 1.25 mM NaH2PO4, 1 mM MgCl2, 10 mM Glucose, pH=7.4 (NaOH).
2) Intracellular fluid: 50 mM CsCl, 10 mM NaCl, 10 mM HEPES, 20 mM EGTA, 60 mM CsF, pH=7.2 (CsOH).
The voltage stimulation scheme of whole-cell patch clamp recording of Nav channel current was as follows: first the membrane potential of the cell was clamped at −130 mV, and then the voltage was stepped to −40 mV or −20 mV at 10 mv step intervals for 8 s. The clamping voltage was maintained at −120 mV, and data was collected repeatedly every 20 seconds. The peak amplitude of its inward current was measured to determine its half-inactivation voltage.
The cell clamping potential was set at −120 mV. The resting and half-inactivation inhibition of sodium current was measured using double pulse mode. The double pulse mode was completed by two 0 mV depolarization test pulses (TP1 and TP2) lasting 50 ms. The conditional voltage between the two depolarization pulses was set near the half-inactivation voltage (lasting 8 s). […] The data acquisition was repeated at an interval of 20 s and the current peak was measured at the two test pulses.
When the current of the Nav channel recorded by the whole cell was stable, the drug was administered, after each drug concentration was applied for 5 minutes (or the current was stable), the next concentration would be tested, and multiple concentrations would be tested for each test compound. The cover glass covered with cells was placed in the recording bath of an inverted microscope, the test compound and the external liquid without compound flowed through the recording chambers in turns from low concentration to high concentration by gravity perfusion, so as to act on the cells, in the recording, the liquid exchange was carried out by vacuum pump. The current detected in each cell in the compound-free external fluid served as its own control group. Multiple cells were detected independently and repeatedly. All electrophysiological experiments were performed at room temperature.
First, the current after the action of each drug concentration and the blank control current were normalized, and then the blocking rate corresponding to each drug concentration was calculated. The mean and standard error were calculated for each concentration, and all the above values were calculated by Microsoft Excel 2013. In addition, the half-inhibitory concentration of each compound was calculated by IGOR software with the following equation: retardation rate=1/[1+(IC50/c)^h].
The dose-dependent effect was nonlinearly fitted with the above equation, wherein, c refers to the drug concentration, IC50 was the half inhibitory concentration, and h refers to the Hill coefficient. The curve fitting and the calculation of IC50 were completed by IGOR software (software version: 6.0.1.0).

[2] = intravenous administration 1 mg/kg
[3] = po, intragastric (gavage) 10 mg/kg

Row | SMILES | AUC(0-inf) [1, 2] | clearance [1, 2] | half-life [1, 2] | Vd [1, 2] | AUC(0-inf) [1, 3] | Cmax [1, 3] | half-life [1, 3] | bioavailability ([1]; po) | IC50 (NaV1.8) | Blocking rate (%) @100 nM (NaV1.8)
1 | O=C(Nc1ccc[n+]([O-])c1)c1c(Oc2ccc(OC(F)(F)F)cc2)cc(C(F)(F)F)c(Cl)c1F [Embodiment A68] | 33.3 µg·h/mL | 0.5 mL/min/kg | 5.24 h | 0.228 L/kg | 139 µg·h/mL | 9700 ng/mL | 5.72 h | 41.8% | 0.27 nM | 99.15%
2 | O=C(Nc1ccc[n+]([O-])c1)c1c(Oc2ccc(OC(F)(F)F)c(F)c2)cc(C(F)(F)F)c(Cl)c1F [Embodiment A84] | 18.8 µg·h/mL | 0.91 mL/min/kg | 4.53 h | 0.355 L/kg | 67.2 µg·h/mL | 4920 ng/mL | 5.75 h | 35.7% |  | 99.14%
3 | O=C(Nc1ccc[n+]([O-])c1)c1cc(Cl)c(C(F)(F)F)cc1Oc1ccc(OC(F)(F)F)cc1 [Embodiment A69] | 56.7 µg·h/mL | 0.3 mL/min/kg | 12.3 h | 0.312 L/kg | 399 µg·h/mL | 17100 ng/mL | 12.2 h | 70.4% | 2 nM | 
4 | Cc1cc(F)ccc1Oc1cc(C(F)(F)F)c(Cl)cc1C(=O)Nc1ccc[n+]([O-])c1 [Embodiment A103] | 2.76 µg·h/mL | 6.15 mL/min/kg | 2.28 h | 1.19 L/kg | 14 µg·h/mL | 1710 ng/mL | 2.47 h | 50.7% |  | 92.47%
5 | O=C(Nc1cc[n+]([O-])nc1)c1c(Oc2ccc(OC(F)(F)F)c(F)c2)ccc(C(F)(F)F)c1F [Embodiment A56] | 9.6 µg·h/mL | 1.74 mL/min/kg | 13.1 h | 1.97 L/kg | 117 µg·h/mL | 3000 ng/mL | 27.9 h | 68.2% | 3.7 nM | 
6 | O=C(Nc1ccc[n+]([O-])c1)c1cc(Cl)c(Cl)cc1Oc1ccc(OC(F)(F)F)cc1 [Embodiment A11] | 1.46 µg·h/mL | 11.4 mL/min/kg | 0.7 h | 0.699 L/kg | 10.6 µg·h/mL | 1330 ng/mL | 2.51 h | 72.6% | 6.2 nM | 
7 | O=C(Nc1cc[n+](O)nc1)c1c(Oc2ccc(OC(F)(F)F)cc2)ccc(C(F)(F)F)c1F [Embodiment A46] | 15.6 µg·h/mL | 1.08 mL/min/kg | 20.1 h | 1.85 L/kg | 2930 µg·h/mL | 2060 ng/mL | 915 h | 46.8% | 3.1 nM | 
8 | O=C(Nc1ccc[n+]([O-])c1)c1cc(Cl)c(C(F)(F)F)cc1Oc1ccc(F)cc1C1CC1 [Embodiment A106] |  |  |  |  |  |  |  |  | 3 nM | 
9 | O=C(Nc1ccc[n+]([O-])c1)c1c(Oc2ccc(OCC(F)(F)F)cc2)cc(Cl)c(Cl)c1F [Embodiment A101] |  |  |  |  |  |  |  |  |  | 98.47%
10 | Cc1cc(Oc2ccc(OC(F)(F)F)cc2)c(C(=O)Nc2ccc[n+]([O-])c2)cc1C(F)(F)F [Embodiment A90] |  |  |  |  |  |  |  |  |  | 89.50%
11 | O=C(Nc1ccc[n+](O)c1)c1c(Oc2ccc(OC(F)(F)F)cc2)ccc(Br)c1F [Embodiment A74] |  |  |  |  |  |  |  |  | 3.5 nM | 
12 | O=C(Nc1cc[n+]([O-])nc1)c1ccc(C(F)(F)F)cc1Oc1ccc(OC(F)(F)F)c(F)c1 [Embodiment A26] |  |  |  |  |  |  |  |  |  | 79.32%
13 | O=C(Nc1ccc[n+](O)c1)c1c(Oc2ccc(OCC(F)(F)F)cc2)ccc(C(F)(F)F)c1F [Embodiment A53] |  |  |  |  |  |  |  |  |  | 85.77%
14 | O=C(Nc1cc[n+]([O-])cc1)c1c(Oc2ccc(OC(F)(F)F)cc2)cc(Cl)c(Cl)c1F [Embodiment A100] |  |  |  |  |  |  |  |  |  | 97.60%
15 | O=C(Nc1ccc[n+]([O-])c1)c1c(Oc2ccc(OC(F)(F)F)cc2)cc(Cl)c(Cl)c1F [Embodiment A22] |  |  |  |  |  |  |  |  | 0.32 nM | 
16 | O=C(Nc1ccc[n+]([O-])c1)c1c(Oc2ccc(OC(F)(F)F)cc2)ccc(CC2CC2)c1F [Embodiment A98] |  |  |  |  |  |  |  |  |  | 95.70%
17 | Cc1cc(OC(F)(F)F)ccc1Oc1ccc(C(F)(F)F)c(F)c1C(=O)Nc1ccc[n+](O)c1 [Embodiment A51] |  |  |  |  |  |  |  |  | 2.7 nM | 
18 | Cc1cc(F)ccc1Oc1cc(C(F)(F)F)c(Br)c(F)c1C(=O)Nc1ccc[n+]([O-])c1 [Embodiment A110] |  |  |  |  |  |  |  |  |  | 98.75%
19 | O=C(Nc1ccc[n+]([O-])c1)c1cc(C(F)(F)F)c(C2CC2)cc1Oc1ccc(OC(F)(F)F)cc1 [Embodiment A97] |  |  |  |  |  |  |  |  |  | 86.65%
